Data reported in PMC9940855, “First-in-Class Dual Hybrid Carbonic Anhydrase Inhibitors and Transient Receptor Potential Vanilloid 1 Agonists Revert Oxaliplatin-Induced Neuropathy” (Journal of Medicinal Chemistry, 2023).
Where “and” joins values, the source holds several entries; their conditions need not be identical. Equal entries are not always repeated.

Assays:
hCA IV = hCA IV (Homo sapiens, UniProt P22748); settings: read-out: KI hCA IV; stopped-flow CO2 hydrase assay; mean from three different assays, errors ±5–10%
Sequence of hCA IV (P22748 19-312): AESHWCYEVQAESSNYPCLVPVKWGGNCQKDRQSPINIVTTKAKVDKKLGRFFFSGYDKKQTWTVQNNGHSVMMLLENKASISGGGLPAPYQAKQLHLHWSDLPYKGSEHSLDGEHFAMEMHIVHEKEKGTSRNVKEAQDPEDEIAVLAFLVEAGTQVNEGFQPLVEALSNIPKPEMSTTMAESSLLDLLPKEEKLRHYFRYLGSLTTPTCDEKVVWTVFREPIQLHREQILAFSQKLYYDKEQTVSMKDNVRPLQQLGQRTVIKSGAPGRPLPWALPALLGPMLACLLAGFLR

hCA VII = hCA VII (Homo sapiens, UniProt P43166); settings: read-out: KI hCA VII; stopped-flow CO2 hydrase assay; mean from three different assays, errors ±5–10%
Sequence of hCA VII (P43166 whole entry): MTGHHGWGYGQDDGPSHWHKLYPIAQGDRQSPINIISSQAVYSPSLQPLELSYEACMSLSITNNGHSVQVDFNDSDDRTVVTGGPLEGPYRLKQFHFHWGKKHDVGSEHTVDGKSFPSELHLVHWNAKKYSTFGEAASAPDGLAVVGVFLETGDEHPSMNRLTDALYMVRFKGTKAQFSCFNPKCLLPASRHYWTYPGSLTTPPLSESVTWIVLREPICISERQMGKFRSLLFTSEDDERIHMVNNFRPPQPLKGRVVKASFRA

hCA XII = hCA XII (Homo sapiens, UniProt O43570); settings: read-out: KI hCA XII; stopped-flow CO2 hydrase assay; mean from three different assays, errors ±5–10%
Sequence of hCA XII (O43570 25-354): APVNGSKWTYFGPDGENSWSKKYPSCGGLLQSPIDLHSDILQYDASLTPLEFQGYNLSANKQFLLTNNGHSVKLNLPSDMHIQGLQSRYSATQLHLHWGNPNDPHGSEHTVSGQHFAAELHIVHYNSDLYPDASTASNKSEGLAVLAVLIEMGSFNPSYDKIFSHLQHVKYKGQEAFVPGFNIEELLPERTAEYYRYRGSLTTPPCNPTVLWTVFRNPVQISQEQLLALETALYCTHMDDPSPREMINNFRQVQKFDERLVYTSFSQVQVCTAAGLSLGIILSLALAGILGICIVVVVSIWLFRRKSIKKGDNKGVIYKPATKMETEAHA

hCA II = hCA II (Homo sapiens, UniProt P00918); settings: read-out: KI hCA II; stopped-flow CO2 hydrase assay; mean from three different assays, errors ±5–10%
TRPV1 receptor = target: T1, TRPV1 receptor (Homo sapiens, UniProt Q8NER1); assay: TRPV1 assay, Fluo-4NW fluorescence in SH-SY5Y-TRPV1 cells; type: cell-based; settings: read-out: EC50 on TRPV1 receptor activity (agonism)
T1 construct: expressed in transfected cells
T1 sequence (Q8NER1 whole entry): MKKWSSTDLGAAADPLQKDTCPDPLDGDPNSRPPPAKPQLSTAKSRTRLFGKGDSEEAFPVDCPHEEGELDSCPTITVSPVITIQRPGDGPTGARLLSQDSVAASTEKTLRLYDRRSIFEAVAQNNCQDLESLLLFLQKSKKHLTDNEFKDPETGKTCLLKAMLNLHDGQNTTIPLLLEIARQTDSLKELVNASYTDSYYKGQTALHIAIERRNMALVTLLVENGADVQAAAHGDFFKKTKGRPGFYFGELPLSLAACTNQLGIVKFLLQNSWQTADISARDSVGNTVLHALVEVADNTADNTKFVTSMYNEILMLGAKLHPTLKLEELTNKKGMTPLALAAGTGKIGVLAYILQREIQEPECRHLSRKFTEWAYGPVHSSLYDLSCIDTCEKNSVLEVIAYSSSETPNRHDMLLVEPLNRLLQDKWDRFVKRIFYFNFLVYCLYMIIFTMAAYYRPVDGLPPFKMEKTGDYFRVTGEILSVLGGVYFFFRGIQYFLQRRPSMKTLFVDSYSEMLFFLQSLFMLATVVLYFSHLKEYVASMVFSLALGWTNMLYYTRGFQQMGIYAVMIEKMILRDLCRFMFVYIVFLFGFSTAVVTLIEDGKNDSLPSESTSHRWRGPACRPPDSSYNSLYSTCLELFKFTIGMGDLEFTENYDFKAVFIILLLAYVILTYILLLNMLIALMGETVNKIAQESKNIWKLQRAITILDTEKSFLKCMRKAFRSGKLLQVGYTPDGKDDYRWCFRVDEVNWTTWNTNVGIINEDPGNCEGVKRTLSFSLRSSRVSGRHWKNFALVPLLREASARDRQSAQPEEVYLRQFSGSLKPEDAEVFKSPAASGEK
Experimental: SH-SY5Y-TRPV1 cells (kindly provided by Johanna Lilja and Anna Forsby (University of Stockholm, Stockholm, Sweden))[40] were cultured in 96 wells. Upon 90% confluence had been reached, the cells were loaded with 5 μM Fluo-4NW for 1 h at 37 °C. […] Briefly, after measuring the basal fluorescence of the plate (four cycles), testing compounds were added to the plate, and the fluorescence was measured for additional 10 cycles; thereafter, 10 μM capsaicin was added with a microinjector and the fluorescence was monitored for an additional 10 cycles.

hCA IX = target: T2, hCA IX (Homo sapiens, UniProt Q16790); type: biochemical
T2 construct: made in house

hCA I = hCA I (Homo sapiens, UniProt P00915); settings: read-out: KI hCA I; stopped-flow CO2 hydrase assay; mean from three different assays, errors ±5–10%
Sequence of hCA I (P00915 whole entry): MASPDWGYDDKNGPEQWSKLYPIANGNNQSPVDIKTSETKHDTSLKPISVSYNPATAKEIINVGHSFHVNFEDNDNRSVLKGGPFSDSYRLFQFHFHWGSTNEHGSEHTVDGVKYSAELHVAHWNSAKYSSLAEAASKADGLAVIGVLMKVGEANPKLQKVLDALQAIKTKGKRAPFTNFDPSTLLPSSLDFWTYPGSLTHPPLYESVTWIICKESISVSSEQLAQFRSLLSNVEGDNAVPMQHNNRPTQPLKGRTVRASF

Ki (hCA IV)	Ki (hCA VII)	Ki (hCA XII)	Ki (hCA II)	EC50 (TRPV1 receptor)	Ki (hCA IX)	Ki (hCA I)	Compound
2660 nM	6.6 nM	59.3 nM	15.1 nM	> 100000 nM	32.2 nM	–	NS(=O)(=O)c1ccc(N2CC[C@@H](NC(=O)Nc3ccc(F)cc3)C2)nc1 [7a, (R)-6-(3-(3-(4-Fluorophenyl)ureido)pyrrolidin-1-yl)pyridine-3-sulfonamide]
4020 nM	78.6 nM	–	–	74500 nM	737 nM	788 nM	NS(=O)(=O)c1ccc(N2CC[C@@H](NC(=O)Nc3ccc(Cl)c(C(F)(F)F)c3)C2)nc1 [10a, (R)-6-(3-(3-(4-Chloro-3-(trifluoromethyl)phenyl)ureido)pyrrolidin-1-yl)pyridine-3-sulfonamide]
–	187 nM	73 nM	–	> 100000 nM	–	37 nM	NS(=O)(=O)c1ccc(N2CC[C@@H](NC(=O)Nc3ccccc3F)C2)nc1 [11a, (R)-6-(3-(3-(2-Fluorophenyl)ureido)pyrrolidin-1-yl)pyridine-3-sulfonamide]
–	76.9 nM	407 nM	–	> 100000 nM	245 nM	–	NS(=O)(=O)c1ccc(N2CC[C@@H](NC(=O)Nc3ccc(Oc4ccccc4)cc3)C2)nc1 [13a, (R)-6-(3-(3-(4-Phenoxyphenyl)ureido)pyrrolidin-1-yl)pyridine-3-sulfonamide]
4900 nM	26.5 nM	7.2 nM	82.2 nM	> 100000 nM	–	–	NS(=O)(=O)c1ccc(N2CC[C@@H](NC(=O)Nc3ccc(Cl)c(Cl)c3)C2)nc1 [14a, (R)-6-(3-(3-(3,4-Dichlorophenyl)ureido)pyrrolidin-1-yl)pyridine-3-sulfonamide]
3560 nM	9.4 nM	6.7 nM	50.2 nM	> 100000 nM	192 nM	72.2 nM	NS(=O)(=O)c1ccc(N2CC[C@@H](NC(=O)Nc3ccc4c(c3)OCCO4)C2)nc1 [15a, (R)-6-(3-(3-(2,3-Dihydrobenzo[b][1,4]dioxin-6-yl)ureido)pyrrolidin-1-yl)pyridine-3-sulfonamide]
5080 nM	68.7 nM	72.2 nM	287 nM	> 100000 nM	36.1 nM	73.5 nM	COc1ccccc1NC(=O)N[C@@H]1CCN(c2ccc(S(N)(=O)=O)cn2)C1 [18a, (R)-6-(3-(3-(2-Methoxyphenyl)ureido)pyrrolidin-1-yl)pyridine-3-sulfonamide]
–	56.1 nM	57.4 nM	437 nM	> 100000 nM	145 nM	252 nM	NS(=O)(=O)c1ccc(N2CC[C@@H](NC(=O)Nc3ccc([N+](=O)[O-])cc3)C2)nc1 [19a, (R)-6-(3-(3-(4-Nitrophenyl)ureido)pyrrolidin-1-yl)pyridine-3-sulfonamide]
3090 nM	–	8.3 nM	14.9 nM	> 100000 nM	378 nM	31.3 nM	NS(=O)(=O)c1ccc(N2CC[C@@H](NC(=S)Nc3ccccc3F)C2)nc1 [21a, (R)-6-(3-(3-(2-Fluorophenyl)thioureido)pyrrolidin-1-yl)pyridine-3-sulfonamide]
4880 nM	41.1 nM	8.1 nM	446 nM	> 100000 nM	–	–	NS(=O)(=O)c1ccc(N2CC[C@@H](NC(=O)Nc3c(F)cc(F)cc3Br)C2)nc1 [22a, (R)-6-(3-(3-(2-Bromo-4,6-difluorophenyl)ureido)pyrrolidin-1-yl)pyridine-3-sulfonamide]
774 nM	9.7 nM	9 nM	–	> 100000 nM	9.6 nM	48 nM	NS(=O)(=O)c1ccc(NC(=S)N[C@@H]2CCN(c3ccccn3)C2)cc1 [35a, (R)-4-(3-(1-(Pyridin-2-yl)pyrrolidin-3-yl)thioureido)benzenesulfonamide]
320 nM	55.4 nM	–	9.6 nM	> 100000 nM	–	85.1 nM	NS(=O)(=O)c1cccc(NC(=S)N[C@@H]2CCN(c3ccccn3)C2)c1 [36a, (R)-3-(3-(1-(Pyridin-2-yl)pyrrolidin-3-yl)thioureido)benzenesulfonamide]
238 nM	83.6 nM	238 nM	8.6 nM	44200 nM	162 nM	78.5 nM	NS(=O)(=O)c1cccc(NC(=S)N[C@@H]2CCN(c3cccc([N+](=O)[O-])n3)C2)c1 [38a, (R)-3-(3-(1-(6-Nitropyridin-2-yl)pyrrolidin-3-yl)thioureido)benzenesulfonamide]
–	55.1 nM	–	–	21900 nM	36.4 nM	490 nM	NS(=O)(=O)c1cccc(NC(=S)N[C@@H]2CCN(c3ccc(C(F)(F)F)cn3)C2)c1 [40a, (R)-3-(3-(1-(5-(Trifluoromethyl)pyridin-2-yl)pyrrolidin-3-yl)thioureido)benzenesulfonamide]
3510 nM	9.5 nM	31.6 nM	8 nM	–	29.1 nM	58.3 nM	NS(=O)(=O)c1ccc(NC(=O)N[C@@H]2CCN(c3ccccn3)C2)cc1 [41a, (R)-4-(3-(1-(Pyridin-2-yl)pyrrolidin-3-yl)ureido)benzenesulfonamide]
2480 nM	8.1 nM	8.2 nM	1.7 nM	–	126 nM	9.6 nM	NS(=O)(=O)c1cccc(NC(=O)N[C@@H]2CCN(c3ccccn3)C2)c1 [42a, (R)-3-(3-(1-(Pyridin-2-yl)pyrrolidin-3-yl)ureido)benzenesulfonamide]
8230 nM	8.7 nM	9.1 nM	14.9 nM	–	26.9 nM	76.2 nM	NS(=O)(=O)c1ccc(NC(=O)N[C@H]2CCN(c3cccc([N+](=O)[O-])n3)C2)cc1 [43b, (S)-4-(3-(1-(6-Nitropyridin-2-yl)pyrrolidin-3-yl)ureido)benzenesulfonamide]
2100 nM	74.8 nM	37.9 nM	6.1 nM	–	971 nM	76 nM	NS(=O)(=O)c1cccc(NC(=O)N[C@@H]2CCN(c3cccc([N+](=O)[O-])n3)C2)c1 [44a, (R)-3-(3-(1-(6-Nitropyridin-2-yl)pyrrolidin-3-yl)ureido)benzenesulfonamide]
9550 nM	17.7 nM	48.4 nM	6.6 nM	–	193 nM	87.2 nM	NS(=O)(=O)c1cccc(NC(=O)N[C@H]2CCN(c3cccc([N+](=O)[O-])n3)C2)c1 [44b, (S)-3-(3-(1-(6-Nitropyridin-2-yl)pyrrolidin-3-yl)ureido)benzenesulfonamide]
3900 nM	8.2 nM	6.3 nM	27.4 nM	–	36.7 nM	72.4 nM	NS(=O)(=O)c1ccc(NC(=O)N[C@@H]2CCN(c3ccc(C(F)(F)F)cn3)C2)cc1 [45a, (R)-4-(3-(1-(5-(Trifluoromethyl)pyridin-2-yl)pyrrolidin-3-yl)ureido)benzenesulfonamide]
9710 nM	12.8 nM	8.6 nM	46.3 nM	–	54 nM	68.6 nM	NS(=O)(=O)c1ccc(NC(=O)N[C@H]2CCN(c3ccc(C(F)(F)F)cn3)C2)cc1 [45b, (S)-4-(3-(1-(5-(Trifluoromethyl)pyridin-2-yl)pyrrolidin-3-yl)ureido)benzenesulfonamide]
–	–	6.6 nM	8.4 nM	37300 nM	–	199 nM	NS(=O)(=O)c1cccc(NC(=O)N[C@@H]2CCN(c3ccc(C(F)(F)F)cn3)C2)c1 [46a, (R)-3-(3-(1-(5-(Trifluoromethyl)pyridin-2-yl)pyrrolidin-3-yl)ureido)benzenesulfonamide]

Compound	Ki (hCA IV)	Ki (hCA VII)	Ki (hCA XII)	Ki (hCA II)	EC50 (TRPV1 receptor)	Ki (hCA IX)	Ki (hCA I)
NS(=O)(=O)c1ccc(N2CC[C@@H](NC(=O)Nc3ccccc3Cl)C2)nc1 [12a, (R)-6-(3-(3-(2-Chlorophenyl)ureido)pyrrolidin-1-yl)pyridine-3-sulfonamide]	3000 nM	73.5 nM	83.6 nM	–	11900 nM	316 nM	82.5 nM
NS(=O)(=O)c1ccc(NC(=S)N[C@@H]2CCN(c3ccc(C(F)(F)F)cn3)C2)cc1 [39a, (R)-4-(3-(1-(5-(Trifluoromethyl)pyridin-2-yl)pyrrolidin-3-yl)thioureido)benzenesulfonamide]	4970 nM	73.3 nM	62.5 nM	–	12500 nM and 12400 nM	355 nM	–
NS(=O)(=O)c1ccc(NC(=S)N[C@H]2CCN(c3ccc(C(F)(F)F)cn3)C2)cc1 [39b, (S)-4-(3-(1-(5-(Trifluoromethyl)pyridin-2-yl)pyrrolidin-3-yl)thioureido)benzenesulfonamide]	9720 nM	15.7 nM	9.4 nM	–	12500 nM	6 nM	–
